# From PubChem BioAssay AID2060894 (Molecular Pharmacology Branch, DTP, NCI, 2025)
# System: K12877-001-R-J1-PDC complex spheroid viability
# Assay: Anticancer human tumor K12877-001-R-J1-PDC patient-derived lung adenocarcinoma cell line growth inhibition [RAS]
# Conditions: for IC50: curve of first compound; for viability, T/C: stronger effect = lower value
# Summary of the method: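 Agents were tested in combination matrices in half-log decrements from a top concentration at or near clinical Cmax (10 microM if undetermined). Targets were multi-cell spheroids of tumour lines plus HUVEC and MSC stromal cells.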
# [1] = second compound 0.0316 µM, first compound 0.000949 µM
# [2] = second compound 0.0316 µM, first compound 0.003 µM
# [3] = second compound 0.0316 µM, first compound 0.00949 µM
# [4] = second compound 0.0316 µM, first compound 0.03 µM
# [5] = second compound 0.0316 µM, first compound 0.0949 µM
# [6] = second compound 0.0316 µM, first compound 0.3 µM
# [7] = second compound 0.1 µM, first compound 0.000949 µM
# [8] = second compound 0.1 µM, first compound 0.003 µM
# [9] = second compound 0.1 µM, first compound 0.00949 µM
# [10] = second compound 0.1 µM, first compound 0.03 µM
# [11] = second compound 0.1 µM, first compound 0.0949 µM
# [12] = second compound 0.1 µM, first compound 0.3 µM
# [13] = second compound 0.316 µM, first compound 0.000949 µM
# [14] = second compound 0.316 µM, first compound 0.003 µM
# [15] = second compound 0.316 µM, first compound 0.00949 µM
# [16] = second compound 0.316 µM, first compound 0.03 µM
# [17] = second compound 0.316 µM, first compound 0.0949 µM
# [18] = second compound 0.316 µM, first compound 0.3 µM
# [19] = second compound 1 µM, first compound 0.000949 µM
# [20] = second compound 1 µM, first compound 0.003 µM
# [21] = second compound 1 µM, first compound 0.00949 µM
# [22] = second compound 1 µM, first compound 0.03 µM
# [23] = second compound 1 µM, first compound 0.0949 µM
# [24] = second compound 1 µM, first compound 0.3 µM
# [25] = second compound 3.16 µM, first compound 0.000949 µM
# [26] = second compound 3.16 µM, first compound 0.003 µM
# [27] = second compound 3.16 µM, first compound 0.00949 µM
# [28] = second compound 3.16 µM, first compound 0.03 µM
# [29] = second compound 3.16 µM, first compound 0.0949 µM
# [30] = second compound 3.16 µM, first compound 0.3 µM
# [31] = second compound 10 µM, first compound 0.000949 µM
# [32] = second compound 10 µM, first compound 0.003 µM
# [33] = second compound 10 µM, first compound 0.00949 µM
# [34] = second compound 10 µM, first compound 0.03 µM
# [35] = second compound 10 µM, first compound 0.0949 µM
# [36] = second compound 10 µM, first compound 0.3 µM
# 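Also: spheroids exposed to agents for one week before readout.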
# 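For viability, T/C in this document: tumour cells co-cultured with HUVEC and mesenchymal stem cells in spheroids.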
smiles,measurement,setting,value
CC1(C)CCC(Nc2ncc(C(F)(F)F)c(-c3c[nH]c4c(P(C)(C)=O)c(C#N)ccc34)n2)CN1 (centres undefined) + C#Cc1c(F)ccc2cc(O)cc(-c3ncc4c(N5CC6CCC(C5)N6)nc(OCC56CCCN5CC(F)C6)nc4c3F)c12,IC50,second compound 0.0316 µM,0.0555 µM
same,IC50,second compound 0.1 µM,0.0346 µM
same,IC50,second compound 0.316 µM,0.0559 µM
same,IC50,second compound 1 µM,0.0503 µM
same,IC50,second compound 3.16 µM,0.0843 µM
same,IC50,second compound 10 µM,0.187 µM
same,"viability, T/C",[1],93.6%
same,"viability, T/C",[2],83.7%
same,"viability, T/C",[3],89.6%
same,"viability, T/C",[4],65.2%
same,"viability, T/C",[5],37.2%
same,"viability, T/C",[6],32%
same,"viability, T/C",[7],97.6%
same,"viability, T/C",[8],100%
same,"viability, T/C",[9],83.8%
same,"viability, T/C",[10],52.3%
same,"viability, T/C",[11],34.5%
same,"viability, T/C",[12],29.1%
same,"viability, T/C",[13],89.9%
same,"viability, T/C",[14],92%
same,"viability, T/C",[15],87%
same,"viability, T/C",[16],63.3%
same,"viability, T/C",[17],39%
same,"viability, T/C",[18],32.9%
same,"viability, T/C",[19],96.9%
same,"viability, T/C",[20],87.5%
same,"viability, T/C",[21],104%
same,"viability, T/C",[22],60.8%
same,"viability, T/C",[23],40%
same,"viability, T/C",[24],33.6%
same,"viability, T/C",[25],100%
same,"viability, T/C",[26],93.6%
same,"viability, T/C",[27],86.6%
same,"viability, T/C",[28],82.5%
same,"viability, T/C",[29],45.6%
same,"viability, T/C",[30],39.9%
same,"viability, T/C",[31],99.8%
same,"viability, T/C",[32],88.7%
same,"viability, T/C",[33],73.7%
same,"viability, T/C",[34],72.9%
same,"viability, T/C",[35],56.9%
same,"viability, T/C",[36],44.2%
CCc1c2c(nc3ccc(O)cc13)-c1cc3c(c(=O)n1C2)COC(=O)[C@]3(O)CC + C#Cc1c(F)ccc2cc(O)cc(-c3ncc4c(N5CC6CCC(C5)N6)nc(OCC56CCCN5CC(F)C6)nc4c3F)c12,IC50,second compound 0.0316 µM,0.00479 µM
same,IC50,second compound 0.1 µM,0.00539 µM
same,IC50,second compound 0.316 µM,0.0053 µM
same,IC50,second compound 1 µM,0.00551 µM
same,IC50,second compound 3.16 µM,0.00535 µM
same,IC50,second compound 10 µM,0.00474 µM
same,"viability, T/C",[1],109%
same,"viability, T/C",[2],77.1%
same,"viability, T/C",[3],10.3%
same,"viability, T/C",[4],4.77%
same,"viability, T/C",[5],2.24%
same,"viability, T/C",[6],0.94%
same,"viability, T/C",[7],107%
same,"viability, T/C",[8],89%
same,"viability, T/C",[9],12.3%
same,"viability, T/C",[10],4.96%
same,"viability, T/C",[11],2.8%
same,"viability, T/C",[12],1.27%
same,"viability, T/C",[13],89.3%
same,"viability, T/C",[14],87.6%
same,"viability, T/C",[15],11.5%
same,"viability, T/C",[16],4.86%
same,"viability, T/C",[17],2.49%
same,"viability, T/C",[18],1.48%
same,"viability, T/C",[19],86.5%
same,"viability, T/C",[20],99.4%
same,"viability, T/C",[21],11.7%
same,"viability, T/C",[22],9.22%
same,"viability, T/C",[23],2.66%
same,"viability, T/C",[24],1.23%
same,"viability, T/C",[25],95%
same,"viability, T/C",[26],85.9%
same,"viability, T/C",[27],14.4%
same,"viability, T/C",[28],7.59%
same,"viability, T/C",[29],3.16%
same,"viability, T/C",[30],2.37%
same,"viability, T/C",[31],82.9%
same,"viability, T/C",[32],75.4%
same,"viability, T/C",[33],11.4%
same,"viability, T/C",[34],5.12%
same,"viability, T/C",[35],4.3%
same,"viability, T/C",[36],1.89%
